US12552825B2 (Zikani Therapeutics, Inc., priority 2019, dated 2026)
Values after ≈ are worked out from the molar mass of the structure shown.

Assays:
[1] = from CO[C@](C)(C[C@@H](C)CN(C)[C@H](CO)CNC(=O)OCc1ccccc1)[C@H](O[C@@H]1O[C@H](C)C[C@H](N(C)C)[C@H]1OC(=O)c1ccccc1)[C@@H](C)C1=C(C)C(=O)OC(C)(C)O1; ester bond; chlorobenzene; 4.0 mM; 165.0 °C; 20.0 h
[2] = tested on: A. baumannii MP-15; test: MIC determination by CLSI broth dilution, A. baumannii MP-15; format: cell-based; conditions: Acinetobacter baumannii, MP15, strain MP-15, read-out: MIC A. baumanii MP-15
[3] = tested on: E. coli MP-4; test: MIC determination by CLSI broth dilution, E. coli MP-4; format: cell-based; conditions: Escherichia coli, MP4, CLSI broth dilution; strain MP-4
[4] = tested on: K. pneumoniae MP-546; test: MIC determination by CLSI broth dilution, K. pneumoniae MP-546; format: cell-based; conditions: Klebsiella pneumoniae, MP546, CLSI broth dilution; strain MP-546
[5] = tested on: K. pneumoniae MP-648; test: MIC determination by CLSI broth dilution, K. pneumoniae MP-648; format: cell-based; conditions: strain MP-648; for MIC: Klebsiella pneumoniae, MP648, CLSI broth dilution
[6] = tested on: S. aureus MP-12; test: microbe, parasite or virus in culture; format: cell-based; conditions: Staphylococcus aureus, MP12, read-out: MIC S. aureus MP-12
[7] = tested on: P. aeruginosa MP-3; test: MIC determination by CLSI broth dilution, P. aeruginosa MP-3; format: cell-based; conditions: Pseudomonas aeruginosa, MP3, strain MP-3

Row | Compound | ring closure, yield of all isomers [1] | MIC [2] | MIC [3] | MIC [4] | MIC [5] | MIC [6] | MIC [7] | MIC K. pneumoniae MP-648 ([5]; CLSI broth dilution)
1 | CO[C@]1(C)C[C@@H](C)CN(C)[C@@H](CNC(=O)OCc2ccccc2)COC(=O)C(C)C(=O)[C@H](C)[C@H]1O[C@@H]1O[C@H](C)C[C@H](N(C)C)[C@H]1OC(=O)c1ccccc1 (stereo partly shown) | 82% | – | – | – | – | – | – | –
2 | CO[C@]1(C)C[C@@H](C)CN(C)[C@@H](CCCN2CCC2)COC(=O)C(C)(C)C(=O)[C@H](C)[C@H]1O[C@@H]1O[C@H](C)C[C@H](N(C)C)[C@H]1O [Compound 160, (3S,6R,8R,9R,10R)-3-(3-(azetidin-1-yl)propyl)-9-(((2S,3R,4S,6R)-4-(dimethylamino)-3-hydroxy-6-methyltetrahydro-2H-pyran-2-yl)oxy)-8-methoxy-4,6,8,10,12,12-hexamethyl-1-oxa-4-azacyclotridecane-11,13-dione] | – | > 32 µg/mL | < 4 µg/mL | < 4 µg/mL | 4 to 32 µg/mL (≈ 6.69 to 53.5 µM) | 4 to 32 µg/mL (≈ 6.69 to 53.5 µM) | > 32 µg/mL | –
3 | CO[C@]1(C)C[C@@H](C)CN(C)[C@H](CCCN2CCCC2)COC(=O)C(C)(C)C(=O)[C@H](C)[C@H]1O[C@@H]1O[C@H](C)C[C@H](N(C)C)[C@H]1O [Compound 161, (3R,6R,8R,9R,10R)-9-(((2S,3R,4S,6R)-4-(dimethylamino)-3-hydroxy-6-methyltetrahydro-2H-pyran-2-yl)oxy)-8-methoxy-4,6,8,10,12,12-hexamethyl-3-(3-(pyrrolidin-1-yl)propyl)-1-oxa-4-azacyclotridecane-11,13-dione] | – | > 32 µg/mL | < 4 µg/mL | < 4 µg/mL | < 4 µg/mL | < 4 µg/mL | 4 to 32 µg/mL (≈ 6.54 to 52.3 µM) | –
4 | CCN(C)CC[C@@H](O)[C@@H]1COC(=O)C(C)(C)C(=O)[C@H](C)[C@@H](O[C@@H]2O[C@H](C)C[C@H](N(C)C)[C@H]2O)[C@](C)(OC)C[C@@H](C)CN1CC [Compound 168] | – | > 32 µg/mL | < 4 µg/mL | 4 to 32 µg/mL (≈ 6.35 to 50.8 µM) | < 4 µg/mL | 4 to 32 µg/mL (≈ 6.35 to 50.8 µM) | > 32 µg/mL | –
5 | CCCCCCCN1CCC(C[C@@H]2COC(=O)[C@@](C)(Cc3ccccc3)C(=O)[C@H](C)[C@@H](O[C@@H]3O[C@H](C)C[C@H](N(C)C)[C@H]3O)[C@](C)(OC)C[C@@H](C)CN2C)CC1 [Compound 171] | – | > 32 µg/mL | < 4 µg/mL | 4 to 32 µg/mL (≈ 5.18 to 41.4 µM) | 4 to 32 µg/mL (≈ 5.18 to 41.4 µM) | 4 to 32 µg/mL (≈ 5.18 to 41.4 µM) | > 32 µg/mL | –
6 | C=C(C)C[C@]1(C)C(=O)OC[C@@H](CC2CCN(CCCCCCC)CC2)N(C)C[C@H](C)C[C@@](C)(OC)[C@H](O[C@@H]2O[C@H](C)C[C@H](N(C)C)[C@H]2O)[C@@H](C)C1=O [Compound 172] | – | > 32 µg/mL | 4 to 32 µg/mL (≈ 5.43 to 43.5 µM) | 4 to 32 µg/mL (≈ 5.43 to 43.5 µM) | – | 4 to 32 µg/mL (≈ 5.43 to 43.5 µM) | > 32 µg/mL | ++ (values of greater than 4 mg/L and less than or equal to 32 mg/L)
7 | CCCCCCCN1CCC(C[C@@H]2COC(=O)[C@@](C)(Cl)C(=O)[C@H](C)[C@@H](O[C@@H]3O[C@H](C)C[C@H](N(C)C)[C@H]3O)[C@](C)(OC)C[C@@H](C)CN2C)CC1 [Compound 173] | – | > 32 µg/mL | < 4 µg/mL | < 4 µg/mL | 4 to 32 µg/mL (≈ 5.58 to 44.7 µM) | > 32 µg/mL | > 32 µg/mL | –
8 | CCCCCCCN1CCC(C[C@@H]2COC(=O)[C@@](C)(CCC)C(=O)[C@H](C)[C@@H](O[C@@H]3O[C@H](C)C[C@H](N(C)C)[C@H]3O)[C@](C)(OC)C[C@@H](C)CN2C)CC1 [Compound 174] | – | > 32 µg/mL | < 4 µg/mL | 4 to 32 µg/mL (≈ 5.52 to 44.2 µM) | 4 to 32 µg/mL (≈ 5.52 to 44.2 µM) | 4 to 32 µg/mL (≈ 5.52 to 44.2 µM) | > 32 µg/mL | –
9 | CCCCCCCN1CCC(C[C@@H]2COC(=O)[C@@](C)(COC)C(=O)[C@H](C)[C@@H](O[C@@H]3O[C@H](C)C[C@H](N(C)C)[C@H]3O)[C@](C)(OC)C[C@@H](C)CN2C)CC1 [Compound 176] | – | > 32 µg/mL | < 4 µg/mL | < 4 µg/mL | 4 to 32 µg/mL (≈ 5.51 to 44.1 µM) | > 32 µg/mL | > 32 µg/mL | –
10 | CCCN1C[C@H](C)C[C@@](C)(OC)[C@H](O[C@@H]2O[C@H](C)C[C@H](N(C)C)[C@H]2O)[C@@H](C)C(=O)C(C)(C)C(=O)OC[C@H]1CCCN1CCc2ncncc2C1 [Compound 182, (3R,6R,8R,9R,10R)-3-(3-(7,8-dihydropyrido[4,3-d]pyrimidin-6 (5H)-yl)propyl)-9-(((2S,3R,4S,6R)-4-(dimethylamino)-3-hydroxy-6-methyltetrahydro-2H-pyran-2-yl)oxy)-8-methoxy-6,8,10,12,12-pentamethyl-4-propyl-1-oxa-4-azacyclotridecane-11,13-dione] | – | > 32 µg/mL | < 4 µg/mL | 4 to 32 µg/mL (≈ 5.68 to 45.5 µM) | 4 to 32 µg/mL (≈ 5.68 to 45.5 µM) | 4 to 32 µg/mL (≈ 5.68 to 45.5 µM) | > 32 µg/mL | –
